The values that follow are results of earlier work, collected in patent US20060182828A1, “METHODS OF REDUCING LIPID PEROXIDATION AND ACHIEVING RELATED HEALTH BENEFITS BY THE ADMINISTRATION OF TOCOPHEROL AND SESAME LIGNANS” (priority 2005, published 2006).

One may read the IC50 as the concentration at which inhibition is half-maximal.

For data set [1], the system named is LDL.
In data set [2] the test system is peroxisomal palmitoyl Co-A oxidation. As to conditions: in vivo.
For data set [3] the following is noted: rats.
The test system of data set [4] is mouse skin papillomas. Particulars: induced with 12-0-tetradecanoylphorbol 1 acetate.
Data set [5] relates to sterol regulatory element binding protein-1 (SREBP-1) m RNA. Particulars: 0.4% sesamin diet group.
The test system of data set [6] is LDL. Particulars: Cu-ascorbate induced.
The test system of data set [7] is heart disease. Particulars: supplementation with 30 IU to 100 IU.
Setting [8] is: 32.4 then 64.8 mg, total of 8 weeks.
Where [9] appears, read: hypercholesterolemic men, before.

As for `Cc1c(C)c2c(c(C)c1O)CC[C@@](C)(CCC[C@H](C)CCC[C@H](C)CCCC(C)C)O2` [alpha-tocopherol], in data set [1], the “formation of 4-hydroxy-2-nonenal (4-HNE), of control values” (from here on “formation of 4-hydroxy-2-nonenal (4-HNE)”) is on record as “absolutely no effect” and the “formation of malondialdehyde (MDA), of control values” (shortened to “formation of malondialdehyde (MDA)”) is “absolutely no effect”.
`c1cc2c(cc1[C@H]1OC[C@H]3[C@@H]1CO[C@@H]3c1ccc3c(c1)OCO3)OCO2` [episesamin]: the “increase of peroxisomal palmitoyl Co-A oxidation rate” value in data set [2] is 5.1 fold.
On to `Cc1c(O)cc2c(c1C)O[C@](C)(CCC[C@H](C)CCC[C@H](C)CCCC(C)C)CC2` [gamma-tocopherol], for which, in data set [3] (serum), the “gamma tocopherol level in serum” value was 3 micromoles per liter. The “gamma tocopherol levels in tissues (liver, kidney, brain)” value in data set [3] (tissue) is recorded as 3 nmol per gram.
For `CC(C)(Sc1cc(C(C)(C)C)c(O)c(C(C)(C)C)c1)Sc1cc(C(C)(C)C)c(O)c(C(C)(C)C)c1` [probucal], in data set [1], the “formation of 4-hydroxy-2-nonenal (4-HNE)” value is listed as “absolutely no effect” and the “formation of malondialdehyde (MDA)” value is reported as “absolutely no effect”.
For `Oc1ccc(C=Cc2cc(O)cc(O)c2)cc1` [resveratrol], the “reduction of formation of mouse skin papillomas” value in data set [4] is recorded as 60%.
As to `c1cc2c(cc1[C@H]1OC[C@H]3[C@@H]1CO[C@@H]3c1ccc3c(c1)OCO3)OCO2` [sesamin], in data set [5], the “SREBP-1 m RNA level relative to rats fed a sesamin-free diet” value was “one-half”. Under setting [8], the “LDL cholesterol, after” value was 156.4; the “apolipoprotein B, after” value is listed as 168.5; the “changes in HDL cholesterol” value is “no changes”; the changes in triglycerides entry is listed as “no changes”. Under setting [8], the “mean total cholesterol, after” value was 248.3. Moreover, under setting [9], the “LDL cholesterol, before” value is on record as 187.1; the “apolipoprotein B, before” value is 188.8; the “mean total cholesterol, before” value is on record as 272.0. The “increase of peroxisomal palmitoyl Co-A oxidation rate” value in data set [2] is 1.6 fold.
Take `Oc1cc2c(cc1[C@H]1OC[C@H]3[C@@H]1CO[C@@H]3c1ccc3c(c1)OCO3)OCO2` [sesaminol]: in data set [6], the “lag time longer than tetrahydrocurcumin” value is recorded as 567% and the “lag time of LDL oxidation” value is 510 min. Also, in data set [1], the “formation of 4-hydroxy-2-nonenal (4-HNE)” value is 17% and the “formation of malondialdehyde (MDA)” value was 13%. Moreover, the “inhibited TBARS formation” value in data set [1] (0.1 micromolar concentration) is 82.8%. For the same compound, in data set [1] (one micromolar concentration), the “protection against TBARS formation” value is 100%. Besides, the IC50 in data set [1] (read-out: IC50, lipid peroxidation of LDL) was 36 ± 10 nM.
Consider `Oc1ccc2c(c1)OCO2` [sesamol], for which, in data set [4], the “reduction of formation of mouse skin papillomas” value is 50%.
Turning to vitamin E, the “lowers the risk of heart disease” value in data set [7] is given as 41%.
